Measured values from US20260347373A1, “HETEROCYCLIC COMPOUNDS, COMPOSITIONS THEREOF, AND METHODS OF TREATMENT THEREWITH” (BeOne Medicines I GmbH, priority 2023, published 2026).
Counter-ions that a name gives are not always drawn. Like-named read-outs stand apart in the source and are kept apart here.

Assays:
[1] = biological target: WT KRAS (Homo sapiens, UniProt P01116); assay: KRAS WT Probe Displacement Assay (TR-FRET, GDP-loaded); assay type: binding
Text: (§1) The synthetic routes of probe 1 and 2, which have been disclosed in PCT/CN2022/070676, are hereby incorporated herein.

[2] = biological target: KRAS G12D (Homo sapiens, UniProt P01116, G12D); assay: KRAS G12D Probe Displacement Assay (TR-FRET, GDP-loaded); assay type: binding
Text: as §1

[3] = KRAS WT, read-out: KRAS^WT Probe Displacement Assay IC50
[4] = KRAS G12D, read-out: KRAS^G12D Probe Displacement Assay IC50

KRAS G12D, sequence (P01116 1-188 isoform P01116-2 G12D): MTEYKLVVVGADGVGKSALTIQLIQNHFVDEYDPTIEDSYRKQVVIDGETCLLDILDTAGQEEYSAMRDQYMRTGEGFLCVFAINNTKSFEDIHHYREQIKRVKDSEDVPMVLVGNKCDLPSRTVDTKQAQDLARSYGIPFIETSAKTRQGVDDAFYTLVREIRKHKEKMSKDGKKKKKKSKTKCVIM
WT KRAS, sequence (P01116 1-188 isoform P01116-2): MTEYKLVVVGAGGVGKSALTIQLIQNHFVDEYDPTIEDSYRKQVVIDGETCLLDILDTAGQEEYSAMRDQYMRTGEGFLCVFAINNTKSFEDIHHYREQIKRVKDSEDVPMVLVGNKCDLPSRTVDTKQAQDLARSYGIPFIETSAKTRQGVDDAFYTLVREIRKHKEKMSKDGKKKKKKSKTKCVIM

| SMILES | IC50 [1, 3] [nM] | IC50 [2, 4] [nM] | IC50 ([1]; KRAS^WT Probe Displacement Assay IC50, KRAS WT) [nM] | IC50 ([2]; KRAS^G12D Probe Displacement Assay IC50, KRAS G12D) [nM] |
| --- | --- | --- | --- | --- |
| Cc1cc(N)cc(-c2nc3c4c(nc(O[C@H](C)[C@@H]5CCCN5C)nc4c2F)N2C[C@H]4CC[C@H](N4)[C@H]2CCO3)c1C(F)(F)F [Example 38, 3-((6aR,7S,10R)-1-fluoro-13-((R)-1-((S)-1-methylpyrrolidin-2-yl)ethoxy)-5,6,6a,7,8,9,10,11-octahydro-4-oxa-3,11a,12,14,15-pentaaza-7,10-methanocyclohepta[4,5]cycloocta [1,2,3-de]naphthalen-2-yl)-5-methyl-4-(trifluoromethyl)aniline] | 3 to 1000 | 0.3 to 3 | – | – |
| COC1(C)CN(CC2(COc3nc4c5c(nc(-c6cc(N)cc(C)c6C(F)(F)F)c(F)c5n3)OCC[C@@H]3[C@@H]5CC[C@H](CN43)N5)CC2)C1 [Example 84, 3-((6aR,7S,10R)-1-fluoro-13-((1-((3-methoxy-3-methylazetidin-1-yl)methyl)cyclopropyl)methoxy)-5,6,6a,7,8,9,10,11-octahydro-4-oxa-3,11a,12,14,15-pentaaza-7,10-methanocyclohepta [4,5]cycloocta [1,2,3-de]naphthalen-2-yl)-5-methyl-4-(trifluoromethyl)aniline] | 3 to 1000 | < 0.3 | – | – |
| [2H]C([2H])([2H])N1C[C@H](OC)C[C@H]1[C@H](C)Oc1nc2c3c(nc(-c4cc(N)cc(Cl)c4C(F)(F)F)c(F)c3n1)OCC[C@@H]1[C@@H]3CC[C@H](CN21)N3 [Example 220, 3-chloro-5-((6aR,7S,10R)-1-fluoro-13-((S)-1-((2S,4R)-4-methoxy-1-(methyl-d3)pyrrolidin-2-yl)ethoxy)-5,6,6a,7,8,9,10,11-octahydro-4-oxa-3,11a,12,14,15-pentaaza-7,10-methanocyclohepta[4,5]cycloocta[1,2,3-de]naphthalen-2-yl)-4-(trifluoromethyl)aniline] | 3 to 1000 | < 0.3 | – | – |
| Cc1cc(N)cc(-c2nc3c4c(nc(OCC5(CN6CCOCC(F)C6)CC5)nc4c2F)N2C[C@H]4CC[C@H](N4)[C@H]2CCO3)c1C(F)(F)F (stereo partly drawn) [Example 153, 3-((6aR,7S,10R)-1-fluoro-13-((1-((6-fluoro-1,4-oxazepan-4-yl)methyl)cyclopropyl)methoxy)-5,6,6a,7,8,9,10,11-octahydro-4-oxa-3,11a,12,14,15-pentaaza-7,10-methano-cyclohepta[4,5]cycloocta [1,2,3-de]naphthalen-2-yl)-5-methyl-4-(trifluoromethyl) aniline] | – | – | 3 to 1000 | < 0.3 |
| COC1CN(CC2(COc3nc4c5c(nc(-c6cc(N)cc(C)c6C(F)(F)F)c(F)c5n3)OCC[C@@H]3[C@@H]5CC[C@H](CN43)N5)CC2)CC1F (single isomer, unassigned) [Example 186] | 3 to 1000 | < 0.3 | – | – |
| Nc1cc(Cl)c(C(F)(F)F)c(-c2nc3c4c(nc(OC[C@@]56CCCN5CC(=C(F)F)C6)nc4c2F)N2C[C@H]4CC[C@H](N4)[C@H]2CCO3)c1 [Example 201, 3-chloro-5-((6aR,7S,10R)-13-(((S)-2-(difluoromethylene)tetrahydro-1H-pyrrolizin-7a(5H)-yl)methoxy)-1-fluoro-5,6,6a,7,8,9,10,11-octahydro-4-oxa-3,11a,12,14,15-pentaaza-7,10-methanocyclohepta[4,5]cycloocta[1,2,3-de]naphthalen-2-yl)-4-(trifluoromethyl)aniline] | 0.3 to 3 | < 0.3 | – | – |
| Cc1cc(N)cc(-c2nc3c4c(nc(OCC5(CN6CC7CC7(CO)C6)CC5)nc4c2F)N2C[C@H]4CC[C@H](N4)[C@H]2CCO3)c1C(F)(F)F (mixture of isomers) [Example 99, (3-((1-((((6aR,7S,10R)-2-(5-amino-3-methyl-2-(trifluoromethyl)phenyl)-1-fluoro-5,6,6a,7,8,9,10,11-octahydro-4-oxa-3,11a,12,14,15-pentaaza-7,10-methanocyclohepta [4,5]cycloocta [1,2,3-de]naphthalen-13-yl)oxy)methyl)cyclopropyl)methyl)-3-azabicyclo[3.1.0]hexan-1-yl)methanol] | 0.3 to 3 | < 0.3 | – | – |
| [2H]C([2H])([2H])c1cc(N)cc(-c2nc3c4c(nc(OC[C@@]5(CN(C)C)CC5(F)F)nc4c2F)N2C[C@H]4CC[C@H](N4)[C@H]2CCO3)c1C(F)(F)F [Example 46, 3-((6aR,7S,10R)-13-(((S)-1-((dimethylamino)methyl)-2,2-difluorocyclopropyl)methoxy)-1-fluoro-5,6,6a,7,8,9,10,11-octahydro-4-oxa-3,11a,12,14,15-pentaaza-7,10-methanocyclohepta[4,5]cycloocta [1,2,3-de]naphthalen-2-yl)-5-(methyl-d3)-4-(trifluoromethyl)aniline] | 3 to 1000 | < 0.3 | – | – |
| Cc1cc(N)cc(-c2nc3c4c(nc(OCC5(CN6C[C@@H](F)[C@@H](O)C6)CC5)nc4c2F)N2C[C@H]4CC[C@H](N4)[C@H]2CCO3)c1C(F)(F)F (stereo in doubt) [Example 95, cis-1-((1-((((6aR, 7S,10R)-2-(5-amino-3-methyl-2-(trifluoromethyl)phenyl)-1-fluoro-5,6,6a,7,8,9,10,11-octahydro-4-oxa-3,11a,12,14,15-pentaaza-7,10-methanocyclohepta [4,5]cycloocta[1,2,3-de]naphthalen-13-yl)oxy)methyl)cyclopropyl)methyl)-4-fluoropyrrolidin-3-ol formate] | 3 to 1000 | < 0.3 | – | – |
| Cc1cc(N)cc(-c2nc3c4c(nc(OCC5(CN6C[C@@H]7[C@@H](CF)[C@@H]7C6)CC5)nc4c2F)N2C[C@H]4CC[C@H](N4)[C@H]2CCO3)c1C(F)(F)F [Example 170, 3-((6aR,7S,10R)-1-fluoro-13-((1-(((1R,5S,6R)-6-(fluoromethyl)-3-azabicyclo[3.1.0]hexan-3-yl)methyl)cyclopropyl)methoxy)-5,6,6a,7,8,9,10,11-octahydro-4-oxa-3,11a,12,14,15-pentaaza-7,10-methanocyclohepta[4,5]cycloocta[1,2,3-de]naphthalen-2-yl)-5-methyl-4-(trifluoromethyl)aniline] | 3 to 1000 | < 0.3 | – | – |
| COC[C@@H]1[C@H]2C[C@H]2CN1CC1(COc2nc3c4c(nc(-c5cc(N)cc(C)c5C(F)(F)F)c(F)c4n2)OCC[C@@H]2[C@@H]4CC[C@H](CN32)N4)CC1 [Example 182, 3-((6aR,7S,10R)-1-fluoro-13-((1-(((1S,2S,5R)-2-(methoxymethyl)-3-azabicyclo[3.1.0]hexan-3-yl)methyl)cyclopropyl)methoxy)-5,6,6a,7,8,9,10,11-octahydro-4-oxa-3,11a,12,14,15-pentaaza-7,10-methanocyclohepta[4,5]cycloocta[1,2,3-de]naphthalen-2-yl)-5-methyl-4-(trifluoromethyl)aniline] | 3 to 1000 | < 0.3 | – | – |
| Cc1cc(N)cc(-c2nc3c4c(nc(OCC5(CN6CCC7(CCOC7)C6)CC5)nc4c2F)N2C[C@H]4CC[C@H](N4)[C@H]2CCO3)c1C(F)(F)F (stereo partly drawn) [Example 188, 3-((6aR,7S,10R)-13-((1-((2-oxa-7-azaspiro[4.4]nonan-7-yl)methyl)cyclopropyl)methoxy)-1-fluoro-5,6,6a,7,8,9,10,11-octahydro-4-oxa-3,11a,12,14,15-pentaaza[7,10]methanocyclohepta[4,5]cycloocta[1,2,3-de]naphthalen-2-yl)-5-methyl-4-(trifluoromethyl)aniline] | < 0.3 | < 0.3 | – | – |
| Cc1nc(N)cc(-c2nc3c4c(nc(OCC5(CN6CCC(=C(F)F)CC6)CC5)nc4c2F)N2C[C@H]4CC[C@H](N4)[C@H]2CCO3)c1C(F)(F)F [Example 147, 4-((6aR,7S,10R)-13-((1-((4-(difluoromethylene)piperidin-1-yl)methyl)cyclopropyl)methoxy)-1-fluoro-5,6,6a,7,8,9,10,11-octahydro-4-oxa-3,11a,12,14,15-pentaaza-7,10-methano-cyclohepta[4,5]cycloocta [1,2,3-de]naphthalen-2-yl)-6-methyl-5-(trifluoromethyl)pyridin-2-amine] | 3 to 1000 | < 0.3 | – | – |
| Cc1cc(N)cc(-c2nc3c4c(nc(OCC5(CN6CCC7(C6)CC7(F)F)CC5)nc4c2F)N2C[C@H]4CC[C@H](N4)[C@H]2CCO3)c1C(F)(F)F (single isomer, unassigned) [Example 139] | 3 to 1000 | – | – | – |
| Cc1cc(N)cc(-c2nc3c4c(nc(OCC5(C)CN(CC6CC6)CC/C5=C\F)nc4c2F)N2C[C@H]4CC[C@H](N4)[C@H]2CCO3)c1C(F)(F)F (single isomer, unassigned) [Example 239] | 0.3 to 3 | – | – | – |
| Cc1cc(N)cc(-c2nc3c4c(nc(OCC5(C)CN(C)CC/C5=C\F)nc4c2F)N2C[C@H]4CC[C@H](N4)[C@H]2CCO3)c1C(F)(F)F (single isomer, unassigned) [Example 237] | 0.3 to 3 | – | – | – |
| Cc1cc(N)cc(-c2nc3c4c(nc(OCC5(CN6CC7CC7C6)CC5(F)F)nc4c2F)N2C[C@H]4CC[C@H](N4)[C@H]2CCO3)c1C(F)(F)F (single isomer, unassigned) [Example 29] | 0.3 to 3 | – | – | – |
| Cc1cc(N)cc(-c2nc3c4c(nc(OC[C@]5(CN(C)C)CC5(F)F)nc4c2F)N2C[C@H]4CC[C@H](N4)[C@H]2CC(C)O3)c1C(F)(F)F (single isomer, unassigned) [Example 249] | 3 to 1000 | – | – | – |
| Cc1cc(N)cc(-c2nc3c4c(nc(O[C@H]5COC[C@@H]5N(C)C)nc4c2F)N2C[C@H]4CC[C@H](N4)[C@H]2CCO3)c1C(F)(F)F [Example 40, (3S,4R)-4-(((6aR,7S,10R)-2-(5-amino-3-methyl-2-(trifluoromethyl)phenyl)-1-fluoro-5,6,6a,7,8,9,10,11-octahydro-4-oxa-3,11a,12,14,15-pentaaza-7,10-methanocyclohepta[4,5]cycloocta [1,2,3-de]naphthalen-13-yl)oxy)-N,N-dimethyltetrahydrofuran-3-amine] | – | 3 to 1000 | – | – |
